Values of other authors as cited in patent US20230008367A1, “COMPOUNDS USEFUL FOR TREATING LIVER DISEASES” (ABIONYX PHARMA SA, priority 2019, published 2023).

Tested on: adults with NASH and fibrosis
Settings: Phase 3 trial

SMILES: CSc1ccc(C(=O)/C=C/c2cc(C)c(OC(C)(C)C(=O)O)c(C)c2)cc1 [elafibranor]
- primary endpoint of NASH resolution without worsening of fibrosis: did not demonstrate a statistically significant effect
